According to publication PMC10460801 (Advanced Pharmaceutical Bulletin, 2022):
Values after ≈ are worked out from the molar mass of the structure shown. Like-named read-outs stand apart in the source and are kept apart here.

How the values were obtained:
[1] = cited from earlier work
[2] = Saturation shake-flask equilibrium solubility (48 h, 37 °C, UV-Vis); assay type: physicochemical; conditions: for solubility thermodynamic at 48 h: thermodynamic from solid, read-out: Css mean
Protocol: In this study dissolution test has been performed in the presence of amino acids within various media, including phosphate buffer solution (pH = 7.4), hydrochloric acid buffer (pH = 1.2), citrate buffer (pH = 6 and pH = 4.2), and distilled water (pH = 6.5). Briefly, for each buffer, a suitable amount of components was transferred to a 250 mL volumetric flask and then diluted with distilled water to the volume line. Finally, the pH of the solution was examined and set using a pH meter (Germany, Metrohm SWISS mode).
The saturation shake-flask method has been used for solubility studies. In brief, buffer solutions containing different concentrations of each amino acid were prepared. An excess amount of each drug was weighed in capped vials, then buffers alone and mixed with amino acids were added to the vials and the pH change was set again. After that, capped vials were shaken for about 48 hours on a shaker incubator (Korea, HYSC) at speed of 150 RPM and 37^ᵒC to reach equilibrium and result a saturated solution. After 48 hours the upper phase was separated and centrifuged. Filtered samples were diluted with buffer before reading their UV-Vis absorbance. Then the amount of solubility was calculated using a calibration curve considering the dilution coefficient. Each of the experiments was repeated three times.

[3] = cited from earlier work; remark: listed apart in the source
[4] = Citrate buffer, pH 6 before incubation, 48 h, 37 °C
[5] = Phosphate buffer, pH 7.4 before incubation, 48 h, 37 °C
[6] = Water, pH 6.5 before incubation, 48 h, 37 °C
[7] = aqueous buffer, Citrate buffer, pH 6 before incubation, 48 h, 37 °C
[8] = aqueous buffer, Phosphate buffer, pH 7.4 before incubation, 48 h, 37 °C
[9] = distilled water, pH 6.5, increasing GlucN
[10] = hydrochloric acid buffer, pH 1.2 before incubation, 48 h, 37 °C
[11] = Citrate buffer, pH 4.2 before incubation, 48 h, 37 °C

SMILES | Measured Css Sample 1 [2, 4] [µg/mL] | Measured Css Sample 2 [2, 4] [µg/mL] | Measured Css Sample 3 [2, 4] [µg/mL] | Measured Css Sample 1 [2, 5] [µg/mL] | Measured Css Sample 2 [2, 5] [µg/mL] | Measured Css Sample 3 [2, 5] [µg/mL] | solubility thermodynamic at 48 h [2, 7] [µg/mL] | solubility thermodynamic at 48 h [2, 8] [µg/mL] | change of drug solubility in the presence of GlucN ([2]; citrate buffer, pH 6) | change of drug solubility in the presence of GlucN [2, 9] | other results
N[C@H]1C(O)O[C@H](CO)[C@@H](O)[C@@H]1O (stereo partly drawn) [GlucN, Glucosamine] |  |  |  |  |  |  |  |  |  |  | water solubility [1]: 320000 µg/mL (≈ 1790 mM)
CC(C)Cc1ccc(C(C)C(=O)O)cc1 (stereo not drawn) [IBU, Ibuprofen] | 5330 | 5050 | 5240 | 10510 | 10330 | 10510 | 5200 (≈ 25.2 mM) | 10400 (≈ 50.7 mM) | solubility increased | follows an upward pattern | Measured Css Sample 1 [2, 6]: 3210 µg/mL; Measured Css Sample 2 [2, 6]: 3110 µg/mL; Measured Css Sample 3 [2, 6]: 3060 µg/mL; solubility thermodynamic at 48 h ([2]; distilled water, Water, pH 6.5 before incubation, 48 h, 37 °C): 3120 µg/mL (≈ 15.1 mM); Css mean [2, 10]: 800 µg/mL; Measured Css Sample 1 [2, 10]: 790 µg/mL; Measured Css Sample 2 [2, 10]: 820 µg/mL; Measured Css Sample 3 [2, 10]: 790 µg/mL; solubility thermodynamic at 48 h ([2]; simulated gastric fluid, hydrochloric acid buffer, pH 1.2 before incubation, 48 h, 37 °C): 800 µg/mL (≈ 3.88 mM); unionized fraction in the stomach [3]: 99.9%; intrinsic water solubility ([1]; free acid): ~60 µg/mL
CN1C(C(=O)Nc2ccccn2)=C(O)c2ccccc2S1(=O)=O [PXM, Piroxicam] | 140 | 130 | 150 | 1250 | 1320 | 1320 | 140 (≈ 0.423 mM) | 1290 (≈ 3.89 mM) | improved the solubility | does not change significantly | Measured Css Sample 1 [2, 11]: 280 µg/mL; Measured Css Sample 2 [2, 11]: 230 µg/mL; Measured Css Sample 3 [2, 11]: 250 µg/mL; solubility thermodynamic at 48 h ([2]; aqueous buffer, Citrate buffer, pH 4.2 before incubation, 48 h, 37 °C): 250 µg/mL (≈ 0.754 mM); change of drug solubility in the presence of GlucN ([2]; citrate buffer, pH 4.2): enhanced; change of drug solubility in the presence of LYS ([2]; citrate buffer, pH 4.2, Figure 3B): did not follow a specific trend; change of drug solubility in the presence of ARG ([2]; phosphate buffer, concentration above molar ratio 1:1 PXM/ARG, Figure 3A): solubility goes down
